Measurements: patent US20080242870A1 (priority 2006, published 2008)
Several values for one entry are separate records, joined by “and”; a condition that tells them apart may be missing. Identical values can stand only once.

Experiments:
Assay type in all cases: physicochemical
[1] = Luminescence lifetime by TCSPC (Example 1); details: for 1τ: TCSPC 370 nm pulsed LED
Description: Luminescence lifetimes were measured with an IBH time-correlated single photon counting (TCSPC) system equipped with an IBH Model TBX-04 Photon Detection Module. The excitation source for the TCSPC measurements was a pulsed LED (IBH NanoLED, 455 nm, 1.3 ns pulse duration or 403 nm, <200 ps pulse duration) with a repetition rate of 1 MHz. All data was analyzed by iterative reconvolution of the decay profile (10,000 counts at the peak channel) with the instrument response function using software provided by the instrument manufacturer.

[2] = Radiative quantum yield against standards (Example 1)
Description: (§1) Unless otherwise stated, all experiments used optically dilute solutions (Optical Density (OD)<0.2) at room temperature. […] Emission spectra were obtained with an Aminco-Bowman luminescence spectrometer (Series 2). The excitation was accomplished with a 150 W Xe lamp optically coupled to a monochrometer (+2 nm). The emission was collected at […] and passed through a second monochrometer (±2 nm). Luminescence was measured with a photomultiplier tube (PMT).

[3] = Absorption spectra of anthracene diimides in solvents of increasing polarity (Example 1)
[4] = Emission spectra of anthracene diimides at room temperature (Example 1); details: for Em. λmax: (p) peak, (s) shoulder
Description: as §1

[5] = Stokes shift / Lippert-Mataga solvatochromic analysis; details: second (lower energy) emission component; R^2=0.99
Source text: The solvatochromic response of the anthracene diimides to photoexcitation was further characterized by analysis of the Stokes' shift and Lippert-Mataga polarity parameter,
where v is the Stokes' shift in wavenumbers, h is Plank's constant, c is the speed of light, ∈0 is the permittivity of free space, Δμ is the change in the dipole moment upon excitation, α^3 is the molecule's volume, as is the solvent dielectric constant, and n is the solvent refractive index. This relationship quantifies the change in dipole between the ground state and excited state of a molecule and, when used with the calculated ground state dipole, the magnitude of the excited state dipole moment may be estimated. Each line represents a solvatochromic emission component of the corresponding diimide. All other bands were not solvatochromic and not included in the analysis. For example, the emission spectra of DPO (35) in the selection of solvents were nearly identical and could not be used in the Lippert-Mataga correlations. DP (37) had two components in the emission profiles; a higher energy band that quickly disappeared with increasing solvent polarity and a lower energy component that red-shifted with increasing solvent polarity.

[6] = Sub-ambient (77 K) emission in 2-methyltetrahydrofuran; details: for emission bands: 2-methyltetrahydrofuran, 405 nm excitation
Description: FIGS. 7a and 7b show normalized emission spectra for the diphenyl anthracene diimides (top) and the tetraphenyl anthracene diimides (bottom) at 77° K in 2-methyltetrahydrofuran and 405 nm excitation.
In an attempt to better understand the excited state properties of the diphenyl and tetraphenyl anthracene diimides, sub-ambient (77 K) emission experiments were performed, with the results shown in FIGS. 7a and 7b. In the case of the diphenyl derivatives, DPO (35), DP (37), and DC (39) display similar emission spectra with overlapping bands near 434 nm, […], and 492 nm. Although the peak ratios differ slightly, the band shapes and positions are nearly identical. […] Similar results are observed for the tetraphenyl series. Here, TPO (40) and TP (41) display spectral features analogous to DPO (35), DP (37), and DC (39), but at lower energy.

## CCCCCCCCn1c(=O)c2c(-c3ccccc3)c3cc4c(-c5ccccc5)c5c(=O)n(CCCCCCCC)c(=O)c5c(-c5ccccc5)c4cc3c(-c3ccccc3)c2c1=O [TPO]
[1]; ACN (38.8)
  1τ: 3.84 ns
[1]; Acetone (20.1)
  1τ: 3.34 ns
[1]; C2H4Cl2 (10.7)
  1τ: 3.19 ns
[1]; CHCl3 (4.8)
  1τ: 3.54 ns
[1]; Ethyl Acetate (6.02)
  1τ: 3.12 ns
[1]; THF (7.6)
  1τ: 3.03 ns
[1]; Toluene (2.4)
  1τ: 2.77 ns
[2]; ACN (38.8)
  Φr: 0.24
[2]; Acetone (20.1)
  Φr: 0.21
[2]; C2H4Cl2 (10.7)
  Φr: 0.23
[2]; CHCl3 (4.8)
  Φr: 0.26
[2]; Ethyl Acetate (6.02)
  Φr: 0.21
[2]; THF (7.6)
  Φr: 0.20
[2]; Toluene (2.4)
  Φr: 0.19
[3]; ACN (38.8)
  Abs. λmax: 428 nm
[3]; Acetone (20.1)
  Abs. λmax: 427 nm
[3]; C2H4Cl2 (10.7)
  Abs. λmax: 430 nm
[3]; CHCl3 (4.8)
  Abs. λmax: 432 nm
[3]; Ethyl Acetate (6.02)
  Abs. λmax: 426 nm
[3]; THF (7.6)
  Abs. λmax: 427 nm
[3]; Toluene (2.4)
  Abs. λmax: 428 nm
[4]; ACN (38.8)
  Em. λmax: 443(p) nm and 468(p) nm
[4]; Acetone (20.1)
  Em. λmax: 443(p) nm and 466(p) nm
[4]; C2H4Cl2 (10.7)
  Em. λmax: 445(p) nm and 470(p) nm
[4]; CHCl3 (4.8)
  Em. λmax: 447(p) nm and 471(p) nm
[4]; Ethyl Acetate (6.02)
  Em. λmax: 442(p) nm and 465(p) nm
[4]; THF (7.6)
  Em. λmax: 445(p) nm and 467(p) nm
[4]; Toluene (2.4)
  Em. λmax: 447(p) nm and 468(p) nm
[4]; room temperature, all solvents
  emission band position: ~428 nm

## CCCCCCOc1ccc(-n2c(=O)c3c(-c4ccccc4)c4cc5c(-c6ccccc6)c6c(=O)n(-c7ccc(OCCCCCC)cc7)c(=O)c6c(-c6ccccc6)c5cc4c(-c4ccccc4)c3c2=O)cc1 [TP]
[1]; Toluene (2.4)
  1τ: 1.03 ns
[2]; ACN (38.8)
  Φr: 0.0080
[2]; Acetone (20.1)
  Φr: 0.011
[2]; C2H4Cl2 (10.7)
  Φr: 0.029
[2]; CHCl3 (4.8)
  Φr: 0.08
[2]; Ethyl Acetate (6.02)
  Φr: 0.023
[2]; THF (7.6)
  Φr: 0.027
[2]; Toluene (2.4)
  Φr: 0.21
[3]; ACN (38.8)
  Abs. λmax: 431 nm
[3]; Acetone (20.1)
  Abs. λmax: 429 nm
[3]; C2H4Cl2 (10.7)
  Abs. λmax: 435 nm
[3]; CHCl3 (4.8)
  Abs. λmax: 435 nm
[3]; Ethyl Acetate (6.02)
  Abs. λmax: 428 nm
[3]; THF (7.6)
  Abs. λmax: 429 nm
[3]; Toluene (2.4)
  Abs. λmax: 431 nm
[4]; ACN (38.8)
  Em. λmax: 456(p) nm and 474(s) nm and 585(p) nm
[4]; Acetone (20.1)
  Em. λmax: 454(p) nm and 576(p) nm
[4]; C2H4Cl2 (10.7)
  Em. λmax: 450(p) nm and 478(p) nm and 497(p) nm and 549(p) nm
[4]; CHCl3 (4.8)
  Em. λmax: 450(p) nm and 482(p) nm and 564(p) nm
[4]; Ethyl Acetate (6.02)
  Em. λmax: 448(s) nm and 499(s) nm and 549(p) nm
[4]; THF (7.6)
  Em. λmax: 459(s) nm and 499(s) nm and 552(p) nm
[4]; Toluene (2.4)
  Em. λmax: 482(p) nm and 520(s) nm
[4]; Toluene (2.4), listed as TP (41)
  Em. λmax: ~431 nm

## CCCCCCOc1ccc(-n2c(=O)c3cc4cc5c(-c6ccccc6)c6c(=O)n(-c7ccc(OCCCCCC)cc7)c(=O)c6cc5cc4c(-c4ccccc4)c3c2=O)cc1 [DP]
[1]; Acetone (20.1)
  1τ: <0.20 ns
[1]; C2H4Cl2 (10.7)
  1τ: <0.20 ns
[1]; CHCl3 (4.8)
  1τ: 0.38 ns
[1]; Ethyl Acetate (6.02)
  1τ: <0.20 ns
[1]; THF (7.6)
  1τ: <0.20 ns
[1]; Toluene (2.4)
  1τ: 0.62 ns
[1]; in ethyl acetate and solvents of higher polarity
  lifetime: below 200 ps
[1]; in toluene
  lifetime: 620 ps
[5]
  slope of Lippert plot: 6,600.2 cm^−1
[2]; Acetone (20.1)
  Φr: 0.0082
[2]; C2H4Cl2 (10.7)
  Φr: 0.020
[2]; CHCl3 (4.8)
  Φr: 0.028
[2]; Ethyl Acetate (6.02)
  Φr: 0.015
[2]; THF (7.6)
  Φr: 0.017
[2]; Toluene (2.4)
  Φr: 0.066
[2]; Toluene (2.4), listed as DP (37)
  Φr: 0.18
[3]; Acetone (20.1)
  Abs. λmax: 423 nm
[3]; C2H4Cl2 (10.7)
  Abs. λmax: 426 nm
[3]; CHCl3 (4.8)
  Abs. λmax: 428 nm
[3]; Ethyl Acetate (6.02)
  Abs. λmax: 421 nm
[3]; THF (7.6)
  Abs. λmax: 422 nm
[3]; Toluene (2.4)
  Abs. λmax: 422 nm
[6]; listed as DP (37)
  emission bands: ~434 nm and ~461 nm and ~492 nm
[4]; Acetone (20.1)
  Em. λmax: 500(s) nm and 584(p) nm
[4]; C2H4Cl2 (10.7)
  Em. λmax: 502(s) nm and 557(p) nm
[4]; CHCl3 (4.8)
  Em. λmax: 536(p) nm and 501(p) nm
[4]; Ethyl Acetate (6.02)
  Em. λmax: 500(s) nm and 555(p) nm
[4]; THF (7.6)
  Em. λmax: 502(s) nm and 562(p) nm
[4]; Toluene (2.4)
  Em. λmax: 497(p) nm and 525(p) nm

## CCCCCCCCn1c(=O)c2cc3cc4c(-c5ccccc5)c5c(=O)n(CCCCCCCC)c(=O)c5cc4cc3c(-c3ccccc3)c2c1=O [DPO]
[1]; ACN (38.8)
  1τ: 8.03 ns
[1]; Acetone (20.1)
  1τ: 7.29 ns
[1]; C2H4Cl2 (10.7)
  1τ: 5.60 ns
[1]; CHCl3 (4.8)
  1τ: 5.79 ns
[1]; Ethyl Acetate (6.02)
  1τ: 6.90 ns
[1]; THF (7.6)
  1τ: 6.71 ns
[1]; Toluene (2.4)
  1τ: 6.36 ns
[2]; ACN (38.8)
  Φr: 0.46
[2]; Acetone (20.1)
  Φr: 0.37
[2]; C2H4Cl2 (10.7)
  Φr: 0.46
[2]; CHCl3 (4.8)
  Φr: 0.36
[2]; Ethyl Acetate (6.02)
  Φr: 0.34
[2]; THF (7.6)
  Φr: 0.37
[2]; Toluene (2.4)
  Φr: 0.35
[3]; ACN (38.8)
  Abs. λmax: 423 nm
[3]; Acetone (20.1)
  Abs. λmax: 421 nm
[3]; C2H4Cl2 (10.7)
  Abs. λmax: 424 nm
[3]; CHCl3 (4.8)
  Abs. λmax: 426 nm
[3]; Ethyl Acetate (6.02)
  Abs. λmax: 420 nm
[3]; THF (7.6)
  Abs. λmax: 421 nm
[3]; Toluene (2.4)
  Abs. λmax: 422 nm
[6]; listed as DPO (35)
  emission bands: ~434 nm and ~461 nm and ~492 nm
[4]; ACN (38.8)
  Em. λmax: 435(p) nm
[4]; Acetone (20.1)
  Em. λmax: 435(p) nm
[4]; C2H4Cl2 (10.7)
  Em. λmax: 436(p) nm
[4]; CHCl3 (4.8)
  Em. λmax: 437(p) nm
[4]; Ethyl Acetate (6.02)
  Em. λmax: 433(p) nm
[4]; THF (7.6)
  Em. λmax: 435(p) nm
[4]; Toluene (2.4)
  Em. λmax: 437(p) nm

## CCCCCCOc1ccc(-n2c(=O)c3cc4cc5c(-c6ccc(OC)cc6)c6c(=O)n(-c7ccc(OCCCCCC)cc7)c(=O)c6cc5cc4c(-c4ccc(OC)cc4)c3c2=O)cc1 [DM]
[1]; C2H4Cl2 (10.7)
  1τ: 0.34 ns
[1]; CHCl3 (4.8)
  1τ: 0.59 ns
[1]; Toluene (2.4)
  1τ: 1.25 ns
[2]; ACN (38.8)
  Φr: 0.0087
[2]; Acetone (20.1)
  Φr: 0.011
[2]; C2H4Cl2 (10.7)
  Φr: 0.030
[2]; CHCl3 (4.8)
  Φr: 0.064
[2]; Ethyl Acetate (6.02)
  Φr: 0.028
[2]; THF (7.6)
  Φr: 0.021
[2]; Toluene (2.4)
  Φr: 0.18
[3]; ACN (38.8)
  Abs. λmax: 427 nm
[3]; Acetone (20.1)
  Abs. λmax: 426 nm
[3]; C2H4Cl2 (10.7)
  Abs. λmax: 430 nm
[3]; CHCl3 (4.8)
  Abs. λmax: 431 nm
[3]; Ethyl Acetate (6.02)
  Abs. λmax: 425 nm
[3]; THF (7.6)
  Abs. λmax: 426 nm
[3]; Toluene (2.4)
  Abs. λmax: 428 nm
[6]; relative to the other members of the series
  red shift of emission spectrum: 13 nm
[4]; ACN (38.8)
  Em. λmax: 463(p) nm and 487(s) nm and 551(p) nm
[4]; Acetone (20.1)
  Em. λmax: 463(p) nm and 492(p) nm and 554(p) nm
[4]; C2H4Cl2 (10.7)
  Em. λmax: 463(p) nm and 490(s) nm and 526(p) nm
[4]; CHCl3 (4.8)
  Em. λmax: 491(s) nm and 465(p) nm
[4]; Ethyl Acetate (6.02)
  Em. λmax: 463(p) nm and 488(p) nm and 526(p) nm
[4]; THF (7.6)
  Em. λmax: 463(p) nm and 494(p) nm and 538(p) nm
[4]; Toluene (2.4)
  Em. λmax: 462(p) nm and 488(s) nm
